≈ marks a conversion by molar mass, not a printed value.
Key:
Assay type in all cases: functional
[1] = test system: Enterococcus faecalis; test: Antimicrobial activity against Enterococcus faecalis VRE-309 after 16 hrs by broth microdilution method; conditions: VRE-309, 16 h
[2] = test system: Klebsiella pneumoniae; test: Antimicrobial activity against Klebsiella pneumoniae KP-249 clinical isolate after 16 hrs by broth microdilution method; conditions: KP-249, 16 h
[3] = test system: Staphylococcus aureus; test: Antimicrobial activity against Staphylococcus aureus ATCC 6538 after 16 hrs by broth microdilution method; conditions: ATCC 6538, 16 h
[4] = test system: Pseudomonas aeruginosa; test: Antimicrobial activity against Pseudomonas aeruginosa PAO1 after 16 hrs by broth microdilution method; conditions: PAO1, 16 h
[5] = test system: Staphylococcus aureus; test: Antimicrobial activity against methicillin-resistant Staphylococcus aureus Chaoyang clinical isolate after 16 hrs by broth microdilution method
[6] = test system: Staphylococcus aureus; test: Antimicrobial activity against methicillin-resistant Staphylococcus aureus 309-3 clinical isolate after 16 hrs by broth microdilution method; conditions: 309-3, 16 h
[7] = test system: Staphylococcus aureus; test: Antimicrobial activity against methicillin-resistant Staphylococcus aureus 8-24 clinical isolate after 16 hrs by broth microdilution method; conditions: 8-24, 16 h
[8] = test system: Staphylococcus aureus; test: Antimicrobial activity against methicillin-resistant Staphylococcus aureus 309-4 clinical isolate after 16 hrs by broth microdilution method; conditions: 309-4, 16 h
[9] = test system: Staphylococcus aureus; test: Antimicrobial activity against methicillin-resistant Staphylococcus aureus 8-21 clinical isolate after 16 hrs by broth microdilution method; conditions: 8-21, 16 h
[10] = test system: Staphylococcus aureus; test: Antimicrobial activity against methicillin-resistant Staphylococcus aureus 309-1 clinical isolate after 16 hrs by broth microdilution method; conditions: 309-1, 16 h
[11] = test system: Staphylococcus aureus; test: Antimicrobial activity against methicillin-resistant Staphylococcus aureus 6-42 clinical isolate after 16 hrs by broth microdilution method; conditions: 6-42, 16 h
[12] = test system: Staphylococcus aureus; test: Antimicrobial activity against methicillin-resistant Staphylococcus aureus 309-6 clinical isolate after 16 hrs by broth microdilution method; conditions: 309-6, 16 h
[13] = test system: Staphylococcus aureus; test: Antimicrobial activity against methicillin-resistant Staphylococcus aureus 309-8 clinical isolate after 16 hrs by broth microdilution method; conditions: 309-8, 16 h
[14] = test system: Enterococcus faecalis; test: Antimicrobial activity against vancomycin-susceptible Enterococcus faecalis after 16 hrs by broth microdilution method
[15] = test system: Bacillus spizizenii; test: Antimicrobial activity against Bacillus subtilis ATCC 6633 after 16 hrs by broth microdilution method; conditions: ATCC 6633, 16 h
[16] = test system: Staphylococcus aureus; test: Antimicrobial activity against methicillin-resistant Staphylococcus aureus 309-7 clinical isolate after 16 hrs by broth microdilution method; conditions: 309-7, 16 h
[17] = test system: Staphylococcus aureus; test: Antimicrobial activity against methicillin-resistant Staphylococcus aureus 6281 clinical isolate after 16 hrs by broth microdilution method; conditions: Staphylococcus aureus, 6281, 16 h

| SMILES | MIC [1] [µg/mL] | MIC [2] [µg/mL] | MIC [3] [µg/mL] | MIC [4] [µg/mL] | MIC [5] [µg/mL] | MIC [6] [µg/mL] | MIC [7] [µg/mL] | MIC [8] [µg/mL] | MIC [9] [µg/mL] | MIC [10] [µg/mL] | MIC [11] [µg/mL] | MIC [12] [µg/mL] | MIC [13] [µg/mL] | MIC [14] [µg/mL] | MIC [15] [µg/mL] | MIC [16] [µg/mL] | MIC [17] [µg/mL] |
| --- | --- | --- | --- | --- | --- | --- | --- | --- | --- | --- | --- | --- | --- | --- | --- | --- | --- |
| O=C1Nc2c(F)cccc2/C1=N/NC(=S)Nc1cccc(Cl)c1 | 1.56 (≈ 4.47 µM) | > 100 | 0.78 (≈ 2.24 µM) | > 100 | 0.39 (≈ 1.12 µM) | 0.78 (≈ 2.24 µM) | 0.78 (≈ 2.24 µM) | 0.78 (≈ 2.24 µM) | 0.78 (≈ 2.24 µM) | 0.78 (≈ 2.24 µM) | 0.39 (≈ 1.12 µM) | 1.56 (≈ 4.47 µM) | 0.78 (≈ 2.24 µM) | 1.56 (≈ 4.47 µM) | ≤ 0.78 | 0.39 (≈ 1.12 µM) | 1.56 (≈ 4.47 µM) |
| COc1ccc(NC(=S)N/N=C2\C(=O)Nc3c(F)cccc32)cc1 | > 100 | > 100 | 3.12 (≈ 9.06 µM) | > 100 | 1.56 (≈ 4.53 µM) | 3.12 (≈ 9.06 µM) | 3.12 (≈ 9.06 µM) | 3.12 (≈ 9.06 µM) | 3.12 (≈ 9.06 µM) | 3.12 (≈ 9.06 µM) | 3.12 (≈ 9.06 µM) | 3.12 (≈ 9.06 µM) | 3.12 (≈ 9.06 µM) | > 100 | 1.56 (≈ 4.53 µM) | 1.56 (≈ 4.53 µM) | 6.25 (≈ 18.1 µM) |
| O=C1Nc2c(Cl)cccc2/C1=N/NC(=S)Nc1cccc(F)c1 | 1.56 (≈ 4.47 µM) | > 100 | 1.56 (≈ 4.47 µM) | > 100 | 0.39 (≈ 1.12 µM) | 1.56 (≈ 4.47 µM) | 1.56 (≈ 4.47 µM) | 0.78 (≈ 2.24 µM) | 1.56 (≈ 4.47 µM) | 1.56 (≈ 4.47 µM) | 0.78 (≈ 2.24 µM) | 1.56 (≈ 4.47 µM) | 1.56 (≈ 4.47 µM) | 3.12 (≈ 8.95 µM) | ≤ 0.78 | 0.78 (≈ 2.24 µM) | 3.12 (≈ 8.95 µM) |
| COc1ccc(NC(=S)N/N=C2\C(=O)Nc3c(Cl)cccc32)cc1 | > 100 | > 100 | 6.25 (≈ 17.3 µM) | > 100 | 1.56 (≈ 4.32 µM) | 3.12 (≈ 8.65 µM) | 3.12 (≈ 8.65 µM) | 1.56 (≈ 4.32 µM) | 3.12 (≈ 8.65 µM) | 3.12 (≈ 8.65 µM) | 1.56 (≈ 4.32 µM) | 6.25 (≈ 17.3 µM) | 3.12 (≈ 8.65 µM) | > 100 | ≤ 0.78 | 1.56 (≈ 4.32 µM) | 6.25 (≈ 17.3 µM) |
| COc1ccccc1NC(=S)N/N=C1\C(=O)Nc2c(Br)cccc21 | > 100 | > 100 | > 100 | > 100 | 25 (≈ 61.7 µM) | > 100 | > 100 | > 100 | > 100 | > 100 | > 100 | > 100 | > 100 | > 100 | 25 (≈ 61.7 µM) | > 100 | > 100 |
| O=C1Nc2c(Br)cccc2/C1=N/NC(=S)Nc1cccc(F)c1 | 1.56 (≈ 3.97 µM) | > 100 | 1.56 (≈ 3.97 µM) | > 100 | 0.39 (≈ 0.992 µM) | 0.78 (≈ 1.98 µM) | 0.78 (≈ 1.98 µM) | 0.78 (≈ 1.98 µM) | 0.78 (≈ 1.98 µM) | 0.78 (≈ 1.98 µM) | 0.78 (≈ 1.98 µM) | 1.56 (≈ 3.97 µM) | 0.78 (≈ 1.98 µM) | 3.12 (≈ 7.93 µM) | ≤ 0.78 | 0.39 (≈ 0.992 µM) | 1.56 (≈ 3.97 µM) |
| O=C1Nc2c(Br)cccc2/C1=N/NC(=S)Nc1cccc(Cl)c1 | 1.56 (≈ 3.81 µM) | > 100 | 1.56 (≈ 3.81 µM) | > 100 | 0.39 (≈ 0.952 µM) | 1.56 (≈ 3.81 µM) | 1.56 (≈ 3.81 µM) | 0.78 (≈ 1.9 µM) | 1.56 (≈ 3.81 µM) | 1.56 (≈ 3.81 µM) | 0.78 (≈ 1.9 µM) | 1.56 (≈ 3.81 µM) | 1.56 (≈ 3.81 µM) | 3.12 (≈ 7.62 µM) | ≤ 0.78 | 0.78 (≈ 1.9 µM) | 1.56 (≈ 3.81 µM) |
| O=C1Nc2c(Br)cccc2/C1=N/NC(=S)Nc1ccc(Br)cc1 | 1.56 (≈ 3.44 µM) | > 100 | 3.12 (≈ 6.87 µM) | > 100 | 0.39 (≈ 0.859 µM) | 1.56 (≈ 3.44 µM) | 1.56 (≈ 3.44 µM) | 0.78 (≈ 1.72 µM) | 1.56 (≈ 3.44 µM) | 1.56 (≈ 3.44 µM) | 0.78 (≈ 1.72 µM) | 1.56 (≈ 3.44 µM) | 1.56 (≈ 3.44 µM) | 3.12 (≈ 6.87 µM) | 1.56 (≈ 3.44 µM) | 0.78 (≈ 1.72 µM) | 3.12 (≈ 6.87 µM) |
| COc1ccc(NC(=S)N/N=C2\C(=O)Nc3c(Br)cccc32)cc1 | > 100 | > 100 | 6.25 (≈ 15.4 µM) | > 100 | 0.78 (≈ 1.92 µM) | 3.12 (≈ 7.7 µM) | 1.56 (≈ 3.85 µM) | 1.56 (≈ 3.85 µM) | 1.56 (≈ 3.85 µM) | 1.56 (≈ 3.85 µM) | 0.78 (≈ 1.92 µM) | 6.25 (≈ 15.4 µM) | 1.56 (≈ 3.85 µM) | > 100 | ≤ 0.78 | 0.78 (≈ 1.92 µM) | 6.25 (≈ 15.4 µM) |
